Measured values as given in patent publication US10307357B2, “Prebiotic oral care compositions containing an alkyl glycoside” (COLGATE-PALMOLIVE COMPANY, priority 2013, dated 2019).

Legend:
Assay type in all cases: cell-based
Actinomyces naeslundii = experiment: Twenty-four hour biofilm growth (crystal violet); conditions: 24 hours, control = 1
Experimental: (§1) The increase in biofilm formation of the tested bacteria in response to selected glycosides (β-methyl-D-galactoside and α-methyl-D-galactoside) was investigated by setting up biofilm growth assays in a nutritionally rich medium (brain heart infusion broth (BHI), Oxoid), over 24 hours. Late exponential growth phase liquid cultures were prepared by transferring the respective bacterium from blood agar plates to BHI and overnight incubation at 37° C. in an anaerobic atmosphere for A. viscosus, V. parvula, P. gingivalis, P. intermedia, T. forsythia, A. naeslundii, and C. sputigena, and in a 5% CO2 environment for S. salivarius, S. sanguinis, S. mitis, A. actinomycetemcomitans, S. mutans, and S. gordonii. Overnight cultures were transferred to BHI and adjusted to a concentration of 1×10^7 CFU/ml by measuring the optical density at 600 nm (OD600) (BioRad SmartSpec 3000). For each strain, 200 μl of the bacterial suspension was added to a 96-well plate containing 20 μl of the respective glycosides. Final concentrations of the glycosides were set to 5, 10, 20 and 25 μmol/ml. […] Additionally, for each bacterium tested, a background control, to correct for background staining, was added. This background control contained the bacterium tested and 0.03 weight % chlorhexidine, as an antiseptic. Plates were incubated as previously described. After 24 hrs the supernatant was removed from the wells of the plates. The wells were washed twice with 1×100 μL PBS (phosphate buffered saline), fixed for 20 minutes with 96% vol. ethanol (96% vol. solution in water) and the biofilm retained at the bottom of the wells was stained with 1 weight % crystal violet (1 weight % solution in water). The bound dye was dissolved with 5% vol. acetic acid (5% vol. solution in water). Quantification of the stained biofilm was performed by measuring the absorbance at 630 nm using a Multiskan Ascent microplate reader (Thermo Scientific). […] The experiment was carried out on three different days (thus providing 3 biological replicas) and each day the experiment was carried out in quadruple (thus providing 4 technical replicas) for each combination of bacterium with glycoside and for each control. For each day and for each combination, the average (mean) of the values obtained (as detailed above) for the four technical replicas was calculated to provide a single value for each combination on each day. The values shown in Tables 7 to 8, below, are the average (mean) of the three single values obtained for each combination of bacterium with glycoside.

Actinomyces viscosus = experiment: Twenty-four hour biofilm growth (crystal violet); conditions: 24 hours, control = 1
Experimental: as §1

[1] = tested on: Aggregatibacter actinomycetemcomitans; experiment: Twenty-four hour biofilm growth (crystal violet); conditions: 24 hours, control = 1
Experimental: as §1

Capnocytophaga sputigena = experiment: Twenty-four hour biofilm growth (crystal violet); conditions: 24 hours, control = 1
Experimental: as §1

Porphyromonas gingivalis = experiment: Twenty-four hour biofilm growth (crystal violet); conditions: 24 hours, control = 1
Experimental: as §1

Prevotella intermedia = experiment: Twenty-four hour biofilm growth (crystal violet); conditions: 24 hours, control = 1
Experimental: as §1

Streptococcus salivarius = experiment: Twenty-four hour biofilm growth (crystal violet); conditions: 24 hours, control = 1
Experimental: as §1

Streptococcus sanguinis = experiment: Twenty-four hour biofilm growth (crystal violet); conditions: 24 hours, control = 1
Experimental: as §1

Veillonella parvula = experiment: Twenty-four hour biofilm growth (crystal violet); conditions: 24 hours, control = 1
Experimental: as §1

[2] = tested on: beneficial oral bacteria and pathogenic oral bacteria; experiment: Twenty-four hour biofilm growth, conclusion over the panel; conditions: threshold 1.6
Text: Substrates that were able to increase the biofilm mass of at least one of the above beneficial bacteria while not or only minimally increasing the biofilm mass of the pathogenic bacteria are considered to be prebiotic compounds. The increase in biofilm formation of the tested bacteria in response to selected glycosides (β-methyl-D-galactoside and α-methyl-D-galactoside) was investigated by setting up biofilm growth assays in a nutritionally rich medium (brain heart infusion broth (BHI), Oxoid), over 24 hours. Late exponential growth phase liquid cultures were prepared by transferring the respective bacterium from blood agar plates to BHI and overnight incubation at 37° C. in an anaerobic atmosphere for A. viscosus, V. parvula, P. gingivalis, P. intermedia, T. forsythia, A. naeslundii, and C. sputigena, and in a 5% CO2 environment for S. salivarius, S. sanguinis, S. mitis, A. actinomycetemcomitans, S. mutans, and S. gordonii. […] Quantification of the stained biofilm was performed by measuring the absorbance at 630 nm using a Multiskan Ascent microplate reader (Thermo Scientific). […] For each day and for each combination, the average (mean) of the values obtained (as detailed above) for the four technical replicas was calculated to provide a single value for each combination on each day. […]

Compound	biofilm OD 630 nm divided by control (biofilm growth) (Actinomyces naeslundii; 5 μmol/ml)	biofilm OD 630 nm divided by control (biofilm growth) (Actinomyces naeslundii; 10 μmol/ml)	biofilm OD 630 nm divided by control (biofilm growth) (Actinomyces naeslundii; 20 μmol/ml)	biofilm OD 630 nm divided by control (biofilm growth) (Actinomyces naeslundii; 25 μmol/ml)	biofilm OD 630 nm divided by control (biofilm growth) (Actinomyces viscosus; 5 μmol/ml)	biofilm OD 630 nm divided by control (biofilm growth) (Actinomyces viscosus; 10 μmol/ml)	biofilm OD 630 nm divided by control (biofilm growth) (Actinomyces viscosus; 20 μmol/ml)	biofilm OD 630 nm divided by control (biofilm growth) (Actinomyces viscosus; 25 μmol/ml)	biofilm OD 630 nm divided by control (biofilm growth) ([1]; 5 μmol/ml)	biofilm OD 630 nm divided by control (biofilm growth) ([1]; 10 μmol/ml)	biofilm OD 630 nm divided by control (biofilm growth) ([1]; 20 μmol/ml)	biofilm OD 630 nm divided by control (biofilm growth) ([1]; 25 μmol/ml)	biofilm OD 630 nm divided by control (biofilm growth) (Capnocytophaga sputigena; 5 μmol/ml)	biofilm OD 630 nm divided by control (biofilm growth) (Capnocytophaga sputigena; 10 μmol/ml)	biofilm OD 630 nm divided by control (biofilm growth) (Capnocytophaga sputigena; 20 μmol/ml)	biofilm OD 630 nm divided by control (biofilm growth) (Capnocytophaga sputigena; 25 μmol/ml)	biofilm OD 630 nm divided by control (biofilm growth) (Porphyromonas gingivalis; 5 μmol/ml)	biofilm OD 630 nm divided by control (biofilm growth) (Porphyromonas gingivalis; 10 μmol/ml)	biofilm OD 630 nm divided by control (biofilm growth) (Porphyromonas gingivalis; 20 μmol/ml)	biofilm OD 630 nm divided by control (biofilm growth) (Porphyromonas gingivalis; 25 μmol/ml)	other results
CO[C@H]1O[C@H](CO)[C@H](O)[C@H](O)[C@H]1O [α-methyl-D-galactoside]	0.9655	0.9764	0.9692	0.9789	0.7268	0.7293	0.7490	0.6777	0.9911	0.9943	1.1846	1.1720	0.9689	1.0025	1.1142	0.9669	0.9047	0.9772	0.9820	1.0029	biofilm OD 630 nm divided by control (biofilm growth) (Prevotella intermedia; 5 μmol/ml): 1.1518; biofilm OD 630 nm divided by control (biofilm growth) (Prevotella intermedia; 10 μmol/ml): 1.1589; biofilm OD 630 nm divided by control (biofilm growth) (Prevotella intermedia; 20 μmol/ml): 1.0758; biofilm OD 630 nm divided by control (biofilm growth) (Prevotella intermedia; 25 μmol/ml): 0.9774; biofilm OD 630 nm divided by control (biofilm growth) (Streptococcus salivarius; 5 μmol/ml): 0.9165; biofilm OD 630 nm divided by control (biofilm growth) (Streptococcus salivarius; 10 μmol/ml): 0.9115; biofilm OD 630 nm divided by control (biofilm growth) (Streptococcus salivarius; 20 μmol/ml): 1.1202; biofilm OD 630 nm divided by control (biofilm growth) (Streptococcus salivarius; 25 μmol/ml): 0.9258; biofilm OD 630 nm divided by control (biofilm growth) (Streptococcus sanguinis; 5 μmol/ml): 2.6029; biofilm OD 630 nm divided by control (biofilm growth) (Streptococcus sanguinis; 10 μmol/ml): 2.4812; biofilm OD 630 nm divided by control (biofilm growth) (Streptococcus sanguinis; 20 μmol/ml): 2.1593; biofilm OD 630 nm divided by control (biofilm growth) (Streptococcus sanguinis; 25 μmol/ml): 2.4656; biofilm OD 630 nm divided by control (biofilm growth) (Veillonella parvula; 5 μmol/ml): 1.0323; biofilm OD 630 nm divided by control (biofilm growth) (Veillonella parvula; 10 μmol/ml): 1.0615; biofilm OD 630 nm divided by control (biofilm growth) (Veillonella parvula; 20 μmol/ml): 1.0577; biofilm OD 630 nm divided by control (biofilm growth) (Veillonella parvula; 25 μmol/ml): 1.1040; prebiotic effect (biofilm growth), in words ([2]; at concentrations of 5, 10, and 20 μmol/ml): exhibited prebiotic effects
CO[C@@H]1O[C@H](CO)[C@H](O)[C@H](O)[C@H]1O [β-methyl-D-galactoside]	0.9907	0.9316	0.9697	0.9727	0.5917	0.5767	0.6104	0.6322	1.1108	1.0188	1.0927	1.0212	0.7253	0.8100	0.8487	0.9428	0.9407	0.9326	0.9049	0.9163	biofilm OD 630 nm divided by control (biofilm growth) (Prevotella intermedia; 5 μmol/ml): 1.1201; biofilm OD 630 nm divided by control (biofilm growth) (Prevotella intermedia; 10 μmol/ml): 1.0925; biofilm OD 630 nm divided by control (biofilm growth) (Prevotella intermedia; 20 μmol/ml): 1.1229; biofilm OD 630 nm divided by control (biofilm growth) (Prevotella intermedia; 25 μmol/ml): 1.1007; biofilm OD 630 nm divided by control (biofilm growth) (Streptococcus salivarius; 5 μmol/ml): 3.1530; biofilm OD 630 nm divided by control (biofilm growth) (Streptococcus salivarius; 10 μmol/ml): 5.6484; biofilm OD 630 nm divided by control (biofilm growth) (Streptococcus salivarius; 20 μmol/ml): 18.9267; biofilm OD 630 nm divided by control (biofilm growth) (Streptococcus salivarius; 25 μmol/ml): 20.1333; biofilm OD 630 nm divided by control (biofilm growth) (Streptococcus sanguinis; 5 μmol/ml): 1.8586; biofilm OD 630 nm divided by control (biofilm growth) (Streptococcus sanguinis; 10 μmol/ml): 2.3853; biofilm OD 630 nm divided by control (biofilm growth) (Streptococcus sanguinis; 20 μmol/ml): 2.3700; biofilm OD 630 nm divided by control (biofilm growth) (Streptococcus sanguinis; 25 μmol/ml): 2.4211; biofilm OD 630 nm divided by control (biofilm growth) (Veillonella parvula; 5 μmol/ml): 1.0106; biofilm OD 630 nm divided by control (biofilm growth) (Veillonella parvula; 10 μmol/ml): 1.0266; biofilm OD 630 nm divided by control (biofilm growth) (Veillonella parvula; 20 μmol/ml): 1.0191; biofilm OD 630 nm divided by control (biofilm growth) (Veillonella parvula; 25 μmol/ml): 1.0384; prebiotic effect (biofilm growth), in words ([2]; at concentrations of 5, 10, 20 and 25 μmol/ml): exhibited prebiotic effects
